Source: patent US4427659A, “Muramyl peptide substituted on a peptide nitrogen and medicaments containing the same” (Agence Nationale de Valorisation de la Recherche (ANVAR), priority 1979, dated 1984)

Legend:
rabbit = conditions: in vivo
Description: In addition, the eventuality of a pyrogenic effect in the rabbit was sought, by following the protocol of the European Pharmacopoea, Vol. 2, 1971, pages 58-60.

Ovalbumin = assay: Adjuvant character in emulsion (FIA): delayed hypersensitivity and specific anti-bodies to ovalbumin; format: in vivo, Hartley males; conditions: 100 μg where printed, no dose given for the methyl ester; for φ mm induration after 48 h: delayed hypersensitivity to 0.025 mg ovalbumin intradermal, 18 days after immunisation with 1 mg ovalbumin in FIA emulsion; for antibodies Log2 μg/ml: serum 21 days after injection, nitrogen precipitatable by ovalbumin, 1 mg ovalbumin in FIA emulsion
Description: The tests were carried out on batches of 6 Hartley males of 350 g. The administration was done by intradermal injection into the plantar pad of each of the rear paws. Ovalbumin (constituting the antigen) in the proportion of 1 mg is prepared in 0.1 ml of an emulsion of saline isotonic solution, in an oily phase constituted by the Freund incomplete adjuvant (FIA).
Eighteen days after this immunisation, possible delayed hypersensitivity reactions (HSR) to the antigen were sought by injecting by the intradermal route 0.025 mg of ovalbumin in the side of the animals, […] The diameter in millimiters of the reaction so-caused was measured.
Twenty one days after the injection, the animals were bled. In the serum collected, the contents of specific anti-bodies of the ovalbumin was measured by precipitation of the antibody-antigen complex in the equivalent zone. The amount of protein nitrogen contained in this precipitate was devaluated by the Folin method. The mean values of the contents of antibodies are indicated in the Table of results by the logarithm to base 2. These values express the amount, in micrograms of nitrogen precipitatable by the antigen, per millimiter of serum.

[1] = tested on: bovine serum albumin (BSA); assay: Adjuvant character in the aqueous phase: anti-body level by passive hemagglutination after BSA with the substance; format: in vivo; conditions: Swiss mice, SC; for Log2 hemagglutinating titer, Secondary response D 36: 0.5 mg BSA with 0.1 mg substance, booster 0.1 mg BSA thirty days later, six days after booster; for Log2 hemagglutinating titer, Primary response D 28: 0.5 mg BSA with 0.1 mg substance in isotonic saline, before booster
Description: Groups of 8 Swiss mice aged two months receive, by sub-cutaneous injection (SC), 0.5 mg of antigen constituted by bovine serum albumin (BSA) with (0.1 mg) or without the substance under test in an isotonic saline solution. This high dose of antigen, because it is situated at the limit of the paralysing dose with respect to the immune response, results, through this fact, in a weak or nul response to the antigen alone in the controls; it constitutes therefore a severe criterion to establish the activity of an adjuvant substance. Thirty days later, the mice receive, by the same route of administration, a booster containing 0.1 mg of the same antigen.
The anti-body level is determined, before and six days after the booster, by passive hemagglutination using sheep's red blood cells treated with formalin and covered with the antigen under study according to the method described by A. A. HIRATA and M. W. BRANDISS (J. Immunol., 100, 641-648, 1968).
The anty-body titer, represented by the maximum serum dilution agglutinating a given amount of sheep's red blood cells reaches a maximum at the 36th day following the first injection and is estblished in the following manner.

Row | Molecule | pyrogenic character (rabbit) | φ mm induration after 48 h (Ovalbumin) [mm] | antibodies Log2 μg/ml (Ovalbumin) [Log2 μg/ml] | Log2 hemagglutinating titer, Secondary response D 36 [1] | Log2 hemagglutinating titer, Primary response D 28 [1]
1 | N-acetyl-muramyl-N-methyl-L-alanyl-D-glutamine-methyl-ester [MDP-(N--methyl-Ala)--OCH3] | absence of a pyrogenic character | 5 ± 2 | 10.11 ± 0.6 | 5.11 | 
2 | N-acetyl-muramyl-N-methyl-L-alanyl-D-isoglutamine [MDP-(N--methyl-Ala)] | absence of a pyrogenic character | 14 ± 0.8 | 12.51 ± 0.88 | 9.27 ± 1.19 | 4.64
3 | CC(=O)N[C@@H]1[C@@H](O[C@H](C)C(=O)N[C@@H](C)C(=O)N[C@H](CCC(=O)O)C(N)=O)[C@H](O)[C@@H](CO)O[C@H]1O [MDP, reference compound] |  | 11.5 ± 2.5 | 12.31 ± 1.01 | 8.34 ± 1.34 | 3.64
